By IC50 is commonly meant the concentration that gives 50% inhibition.

This passage reports IC50 results from US7741493B2, “Heterocyclic compounds as P2X7 ion channel blockers” (Aventis Pharmaceuticals Inc., priority 2003, dated 2010).

Several values for one entry are separate records, joined by “and”; a condition that tells them apart may be missing. Equal values may be shown once. Where a name gives a salt, the structure may show the parent alone.

One experiment concerns the target T1, P2X7 (Homo sapiens, UniProt Q99572).
T1 sequence (Q99572 1-595): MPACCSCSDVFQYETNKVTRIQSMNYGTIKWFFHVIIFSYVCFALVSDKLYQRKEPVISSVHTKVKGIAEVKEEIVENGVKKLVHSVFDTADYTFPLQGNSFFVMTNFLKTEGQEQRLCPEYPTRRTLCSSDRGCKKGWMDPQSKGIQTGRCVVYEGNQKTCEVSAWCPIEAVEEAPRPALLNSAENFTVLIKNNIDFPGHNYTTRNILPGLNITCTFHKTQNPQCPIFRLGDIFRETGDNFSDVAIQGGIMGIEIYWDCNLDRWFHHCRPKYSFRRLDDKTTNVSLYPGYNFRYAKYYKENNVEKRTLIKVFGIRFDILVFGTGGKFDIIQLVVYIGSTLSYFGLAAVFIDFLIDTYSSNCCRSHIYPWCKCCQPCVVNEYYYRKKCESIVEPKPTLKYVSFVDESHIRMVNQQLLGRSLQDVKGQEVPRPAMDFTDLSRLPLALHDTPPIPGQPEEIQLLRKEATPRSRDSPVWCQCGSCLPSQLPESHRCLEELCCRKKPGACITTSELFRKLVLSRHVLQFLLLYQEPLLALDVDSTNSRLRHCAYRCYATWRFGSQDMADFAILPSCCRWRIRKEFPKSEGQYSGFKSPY
The experiment in a line: YO-PRO-1 dye uptake assay in U373 cells stably expressing P2X7. It counts as cell-based. Also on record: The complete open reading frame of human P2X7 was amplified from Incyte clone 148057; expressed in transfected cells. The note with it: IC50 (nM), dye uptake through P2X7, U373 cells, 300 μM BzATP, 5 μM YO-PRO-1, test compounds 30 nM to 3 μM. The method, then: Following a 24-hr exposure to DNA, cells were trypsinized and re-seeded at low density in the presence of […] G418. After incubation for 2 weeks, isolated clones were selected with cloning cylinders and replated in […] G418. Cell clones were then expanded. Clones were screened for P2X7 by applying ATP and recording the resultant current using patch clamp electrophysiology.
U373 cells stably expressing P2X7 were used to screen drugs via a dye uptake assay. Cells were plated overnight on collagen coated 96-well plates at a density of 35,000 cells per well. The following day, culture media was replaced with Mg^++ and Ca^++-free Hank's balanced salt solution and various concentrations of test compounds ranging from 30 nM to 3 μM. Cells were then allowed to incubate with test compounds at 37° C. for 20 minutes. Following this incubation period YO-PRO-1 dye (Molecular Probes, Eugene, Oreg., final concentration 5 μM) and 2′-& 3′-O-(4-Benzolybenzoyl)-Adenosine 5′-triphosphate (Sigma Chemical, St Louis, Mo., final concentration 300 μM) were added to the cells sequentially. Cells were then incubated at 37° C. for 1.5 hours. […] Fluorescence in the presence of test substances was compared to that in the absence of test substances (control).
`c1ccc(CCC2=N[C@H](c3ccccc3)[C@H](c3ccccc3)N2)cc1` [cis-4,5-diphenyl-2-(2-phenylethyl)-4,5-dihydro-1H-imidazole] yielded a 50% inhibitory concentration (IC50) of 77 nM.

Still in this experiment, the particulars now being: dye uptake through P2X7, U373 cells, 300 μM BzATP, 5 μM YO-PRO-1, test compounds 30 nM to 3 μM; read-out: IC50.
For `C[C@@]1(c2ccccc2)N=C(COc2ccccc2)N[C@@H]1c1ccccc1` (relative stereo) [2-[(Phenoxy)methyl]-cis-4,5-diphenyl-4-methyl-4,5-dihydro-1H-imidazole trifluoroacetate], the IC50 is 405 nM.
As for `Fc1cccc(CNC2=N[C@@H](c3ccccc3Br)[C@@H](c3ccccc3Br)N2)c1` [[cis-4,5-bis-(2-Bromophenyl)-4,5-dihydro-1H-imidazol-2-yl]-(3-fluorobenzyl)amine hydrochloride], the IC50 came to 782 nM.
On to `Fc1ccc(CSC2=N[C@@H](c3ccccc3)[C@@H](c3ccccc3)N2)c(Cl)c1` [2-[(2-Chloro-4-fluorobenzyl)thio]-cis-4,5-diphenyl-4,5-dihydro-1H-imidazole hydrochloride], for which the IC50 amounted to 828 nM.
As to `C[C@@]1(c2ccccc2)N=C(COC2CCC2)N[C@@H]1c1ccccc1` (relative stereo) [2-[(Cyclobutoxy)methyl]-cis-4,5-diphenyl-4-methyl-4,5-dihydro-1H-imidazole trifluoroacetate], the half-maximal inhibitory concentration (IC50) is 722 nM.
With `Fc1ccc(CNC2=N[C@@H](c3ccccc3Cl)[C@@H](c3ccccc3Cl)N2)cc1F` [[cis-4,5-bis-(2-Chlorophenyl)-4,5-dihydro-1H-imidazol-2-yl]-(3,4-difluorobenzyl)-amine hydrochloride], the IC50 came to 378 nM.
Take `Fc1ccc(CSC2=N[C@@H](c3ccccc3)[C@@H](c3ccccc3)N2)cc1` [cis-4,5-diphenyl-2-(4-fluorobenzyl)thio-4,5-dihydro-1H-imidazole]: the IC50 is 300 nM.
Same read-out and setting: in the case of `C[C@@]1(c2ccccc2)N=C(COC2CCCC2)N[C@@H]1c1ccccc1` (relative stereo) [2-[(Cyclopentyloxy)methyl]-cis-4,5-diphenyl-4-methyl-4,5-dihydro-1H-imidazole hydrochloride] it was 487 nM; in that of `COc1cccc(CNC2=N[C@@H](c3ccccc3)[C@@H](c3ccccc3)N2)c1` [cis-4,5-diphenyl-2-(3-methoxybenzyl)amino-4,5-dihydro-1H-imidazole], 386 nM; in that of `OC(CC1=N[C@@H](c2ccccc2)[C@@H](c2ccccc2)N1)c1ccccc1` (stereo partly drawn) [2-(cis-4,5-diphenyl-4,5-dihydro-1H-imidazol-2-yl)-1-phenylethan-1-ol], 195 nM.
On to `CC(OCC1=N[C@@](C)(c2ccccc2)[C@@H](c2ccccc2)N1)C1CCCC1` (relative stereo) [2-[(1-Cyclopentyl-1-ethoxy)methyl]-cis-4,5-diphenyl-4-methyl-4,5-dihydro-1H-imidazole hydrochloride], for which the IC50 is 160 nM.
Same read-out and setting: in the case of `CN(Cc1ccccc1)C1=N[C@@H](c2ccccc2)[C@@H](c2ccccc2)N1` [(cis-4,5-Diphenyl-4,5-dihydro-1H-imidazol-2-yl)-N-methylbenzylamine hydrochloride] it was 147 nM; in that of `C[C@]1(c2ccccc2)N=C(OCC2CCCCC2)N[C@H]1c1ccccc1` (relative stereo) [2-(Cyclohexylmethoxy)-cis-4,5-diphenyl-4-methyl-4,5-dihydro-1H-imidazole trifluoroacetate], 275 nM.
With `Fc1ccc(OCC2=N[C@@H](c3ccccc3)[C@@H](c3ccccc3)N2)cc1` [2-[(4-Fluorophenoxy)methyl]-cis-4,5-diphenyl-4,5-dihydro-1H-imidazole trifluoroacetate], the IC50 is 401 nM.
Same read-out and setting: in the case of `Cc1ccc([C@H]2NC(NCc3ccc(F)cc3)=N[C@H]2c2ccc(C)cc2)cc1` [[cis-4,5-bis-(4-Methylphenyl)-4,5-dihydro-1H-imidazol-2-yl]-(4-fluorobenzyl)amine hydrochloride] it was 287 nM; in that of `C[C@@]1(c2cccc(F)c2)N=C(NCc2cccc(F)c2)N[C@@H]1c1cccc(F)c1`, 49 nM; in that of `Cc1ccccc1CCC1=N[C@@H](c2cccc(F)c2)[C@@H](c2cccc(F)c2)N1` [2-[2-(2-Methylphenyl)ethyl]-cis-4,5-bis-(3-fluorophenyl)-4,5-dihydro-1H-imidazole trifluoroacetate], 94 nM.
Same read-out and setting: as for `Cc1cccc(CCC2=N[C@@H](c3ccccc3)[C@@H](c3ccccc3)N2)c1` [2-[2-(3-Methylphenyl)ethyl]-cis-4,5-diphenyl-4,5-dihydro-1H-imidazole trifluoroacetate], the figure is 229 nM; as for `Fc1ccccc1CNC1=N[C@@H](c2ccccc2)[C@@H](c2ccccc2)N1` [cis-4,5-diphenyl-2-(2-fluorobenzyl)amino-4,5-dihydro-1H-imidazole], 409 nM.
The same measure, in the same setting: as for `Cc1ccc(CC2=N[C@H](c3ccccc3)[C@H](c3ccccc3)N2)cc1` [cis-4,5-diphenyl-2-(4-methylbenzyl)-4,5-dihydro-1H-imidazole], the figure is 83 nM and 80 nM; as for `Fc1cccc(COCC2=N[C@@H](c3ccccc3)[C@@H](c3ccccc3)N2)c1` [2-[(3-Fluorobenzyloxy)methyl]-cis-4,5-diphenyl-4,5-dihydro-1H-imidazole hydrochloride], 274 nM.
On to `Clc1ccc(CC2=N[C@@H](c3ccccc3)[C@@H](c3ccccc3)N2)cc1` [cis-4,5-diphenyl-2-(4-chlorobenzyl)-4,5-dihydro-1H-imidazole], for which the IC50 is 269 nM and 270 nM.
The same measure, in the same setting: as for `C[C@@]1(c2ccccc2)N=C(COc2cccc(F)c2)N[C@@H]1c1ccccc1` (relative stereo) [2-[(3-Fluorophenoxy)methyl]-cis-4,5-diphenyl-4-methyl-4,5-dihydro-1H-imidazole trifluoroacetate], the figure is 104 nM; as for `c1ccc([C@H]2NC(COC3CCCCCCC3)=N[C@H]2c2ccccc2)cc1` [2-[(Cyclooctyloxy)methyl]-cis-4,5-diphenyl-4,5-dihydro-1H-imidazole trifluoroacetate], 506 nM; as for `Fc1ccc(CNC2=N[C@@H](c3ccccc3Cl)[C@@H](c3ccccc3Cl)N2)cc1` [[cis-4,5-bis-(2-Chlorophenyl)-4,5-dihydro-1H-imidazol-2-yl]-(4-fluorobenzyl)amine hydrochloride], 624 nM.
As to `Fc1ccc(CNC2=N[C@@H](c3ccccc3)[C@@H](c3ccccc3)N2)cc1` [(cis-4,5-Diphenyl-4,5-dihydro-1H-imidazol-2-yl)-(4-fluorobenzyl)amine hydrochloride], the IC50 worked out at 96 nM.
As for `c1ccc([C@H]2NC(NCC3CCCCC3)=N[C@H]2c2ccccc2)cc1` [(cis-4,5-Diphenyl-4,5-dihydro-1H-imidazol-2-yl)-(cyclohexylmethyl)amine hydrochloride], the IC50 came to 124 nM.
As for `C[C@@]1(c2ccccc2)N=C(NCc2ccc(F)cc2)N[C@@H]1c1ccccc1` (relative stereo) [(cis-4,5-Diphenyl-4-methyl-4,5-dihydro-1H-imidazol-2-yl)-(4-fluorobenzyl)amine hydrochloride], the IC50 worked out at 63 nM.
The same measure, in the same setting: in the case of `OC(C1=N[C@@H](c2ccccc2)[C@@H](c2ccccc2)N1)c1ccccc1` (stereo partly drawn) [cis-(4,5-diphenyl-4,5-dihydro-1H-imidazol-2-yl)-phenyl-methanol] it was 241 nM.
Regarding `Fc1cccc(Cl)c1CC1=N[C@@H](c2ccccc2)[C@@H](c2ccccc2)N1` [trifluoroacetate], the IC50 came to 826 nM.
Same read-out and setting: in the case of `Clc1ccccc1CNC1=N[C@@H](c2ccccc2)[C@@H](c2ccccc2)N1` [cis-4,5-diphenyl-2-(2-chlorobenzyl)amino-4,5-dihydro-1H-imidazole] it was 587 nM; in that of `Fc1cccc([C@H]2NC(CCc3ccccc3F)=N[C@H]2c2cccc(F)c2)c1` [2-[2-(2-Fluorophenyl)ethyl]-cis-4,5-bis-(3-fluorophenyl)-4,5-dihydro-1H-imidazole trifluoroacetate], 304 nM.
The same measure, in the same setting: in the case of `Fc1cccc([C@H]2NC(Cc3cccc(Cl)c3)=N[C@H]2c2cccc(F)c2)c1` [2-(3-Chlorobenzyl)-cis-4,5-bis-(3-fluorophenyl)-4,5-dihydro-1H-imidazole trifluoroacetate] it was 330 nM; in that of `Cc1ccccc1[C@H]1NC(NCc2ccccc2)=N[C@H]1c1ccccc1C` [[cis-4,5-bis-(2-Methylphenyl)-4,5-dihydro-1H-imidazol-2-yl]-benzylamine hydrochloride], 167 nM.
